Entries after “also recorded” stand apart in the source; their conditions may differ.
How the values were obtained:
EAE mice = test: MOG35-55-induced EAE in mice, daily clinical score (0-5); format: in vivo; details: for Suppression of EAE (mean clinical score) by sunscreen ingredients: topical daily day 0-30, amount equal to that in the sunscreen: homosalate 1.5 g/kg, octisalate 0.5 g/kg, 12% avobenzone, 16% oxybenzone in 25 μl DMSO; for Mean Severity / CDI / Day of onset: as E1, mean ± SD; for Mean Severity: clinical score 0-5 averaged over the entire experiment; for CDI: clinical scores summed per animal, divided by mice per group; for Effective topical dose in a mouse model: daily; for Dose dependence of EAE suppression: topical 10, 20 and 30 μl or 0.5, 1.0, 1.5 g/kg (FIG. 8A); for Incidence: topical daily day 0-30, homosalate 30 μl (1.5 g/kg), octisalate 10 μl (0.5 g/kg), sunscreen spray 200 μl, N=11-12, * P<0.05 vs Control; for Suppression of EAE at 1.5 g/kg: topical, ca 1.5 g/kg
Experimental: Animals and Diet. Female C57BL/6 mice (8-9 weeks old) purchased from Jackson Laboratory were fed a standard lab diet chow 5008 (Purina Mills, Richmond, Ind.) and maintained in the Department of Biochemistry's vivarium. The mice were exposed to 12 h light-dark cycles. All procedures were approved by the Research Animal Resources Committee of the College of Agricultural & Life Sciences, University of Wisconsin-Madison. The mice were randomly divided into groups for different treatment (12 mice/group).
Mice were shaved on their back to receive sunscreen or NBUVB radiation. The following Sunscreen cream or spray was used in our study (See Appendix A): 1. Coppertone spray (SPF 50, MSD Consumer Care, Inc., Memphis, Tenn.); 2. Coppertone water babies (SPF 50, MSD Consumer Care, Inc., Memphis, Tenn.); 3. Hawaiian Tropic (SPF 50, Energizer Personal Care, LLC, Shelton, Conn.); 4. Kiss my face (SPF 50, Kiss My Face, LLC, Gardiner, N.Y.); 5. Blue Lizard Australian Sunscreen (SPF 30, Crown Laboratories, Johnson, Tenn.); 6. Banana Boat Kids (SPF 50, Energizer Personal Care, LLC, Shelton, Conn.); 7. CoTZ Face (SPF40, CoTZ Skincare, West Norriton, Pa.). The sunscreen was applied manually to cover the shaved skin daily depending on the experimental schedule. Four main active ingredients (avobenzone; oxibenzone; homosalate; octyl salicylate) were purchased from Spectrum Chemical MFG. Corp. (New Brunswick, N.J.). The total dose of each ingredient administrated topically on each mouse skin was equal to the amount of the ingredient in the sunscreen.
In this experiment, mice were immunized with myelin oligodendrocyte glycoprotein peptide (MOG)35-55. MOG35-55 kit (EK-2110) was purchased from Hooke lab (Lawrence, Mass.). Each mouse was immunized with subcutaneous injection of 20 μl MOG35-55/CFA emulsion and intraperitoneally injection with 200 ng of pertussis toxin (List Biological Laboratories) diluted in sterile PBS. The second booster pertussis toxin injection was given 48 hours later. Each mouse was scored daily for clinical signs of EAE using the following scale: 0, no clinical disease; 1, loss of tail tone; 2, unsteady gait; 3, hind limb paralysis; 4, forelimb paralysis; 5, death.
Onset was calculated by averaging the first day when clinical signs appeared and continued for at least 2 days. Mean severity was determined by averaging the clinical scores during the entire experiment. The CDI (clinical disease index) was calculated by summing the clinical scores in each animal and divided by the number of mice per group. Statistical analyses were performed using the two-tailed Fisher exact probability test for incidence, the Mann-Whitney nonparametric u test for clinical scores, and the unpaired Student t test for all other measurements. A value of P<0.05 was considered statistically significant.
Female C57BL/6 mice (8-10 weeks old) purchased from Jackson Laboratory (Bar Harbor, Me.) were fed a standard lab chow 5008 (Purina Mills, Richmond, Ind.). The mice were exposed to 12 h light-dark cycles. In one experiment the animals were kept in darkness at all times. All procedures were approved by the Institutional Animal Care and Use Committee of the College of Agricultural & Life Sciences, University of Wisconsin-Madison.
Mice were immunized with MOG35-55 kit (EK-2110, purchased from Hooke lab (Lawrence, Mass.)). Each mouse was immunized with a subcutaneous injection of 20 μl MOG35-55/CFA emulsion and an intraperitoneal injection with 200 ng of pertussis toxin (List Biological Laboratories) diluted in sterile PBS (14). A second booster pertussis toxin injection was given 48 hours later. Each mouse was scored daily for clinical signs of EAE using the following scale: 0, no clinical disease; 1, loss of tail tone; 2, unsteady gait; 3, hindlimb paralysis; 4, forelimb paralysis; 5, death (15).
Sunscreen creams or spray applied topically to the shaved back skin of the mice daily are shown below (Table 2): 1. […]

[1] = Body weight of EAE mice, weighed weekly; format: in vivo; details: for Body weight of EAE mice given sunscreen ingredients: topical daily day 0-30, amount equal to that in the sunscreen; for Body weight at three doses: topical 0.5, 1.0, 1.5 g/kg, all treatments except homosalate 0.5 g/kg (FIG. 8B)
Experimental: Referring to FIGS. 2A and 2B, we analyzed different sunscreen ingredients. […] Mice were treated with ingredients (avobenzone, oxybenzone or combination) of sunscreen by topical administration daily during EAE (day 0-day 30). Sunscreen spray 200 μl was also used as a positive control. Each mouse was scored daily and weighed weekly during the experiment (30 days). Data are expressed as mean value, N=10-12/group.
Mice were treated with ingredients (homosalate, octyl salicylate or combination) of sunscreen by topical administration daily during EAE (day 0-day 30). Sunscreen spray 200 μl daily was used as a positive control. Mice were scored daily and weighed weekly. Data were expressed as mean value, N=10-12/group.

MS = details: studied in 1961, reference 9; cited from earlier work
[2] = Adverse effects of topical application; format: in vivo, mice
rabbits = details: unpublished; cited from earlier work
ear edema = ear edema test in mice, reference 7; cited from earlier work

Structure (SMILES)	Suppression of EAE (mean clinical score) by sunscreen ingredients (EAE mice)	Body weight of EAE mice given sunscreen ingredients [1]	Mean Severity (EAE mice)	CDI (EAE mice)	Day of onset (EAE mice)	Effective topical dose in a mouse model (EAE mice)	Incidence (EAE mice)	Suppression of EAE at 1.5 g/kg (EAE mice)	Adverse effect [2]	further results
COc1ccc(C(=O)CC(=O)c2ccc(C(C)(C)C)cc2)cc1 [avobenzone, reference compound]	partially suppress EAE severity; also recorded: little to no significant suppression of EAE; also recorded: fail to suppress EAE; also recorded: slightly suppressed disease progression	no significant change in body weight								Suppression of EAE (mean clinical score) by sunscreen ingredients (EAE mice; listed as Avobenzone): partially suppress EAE severity
CC(=O)Oc1ccccc1C(=O)O [aspirin, acetylsalicylic acid]										Relationship between aspirin and MS, control vs treated group (MS): without a significant difference between the control and treated group
CC1CC(OC(=O)c2ccccc2O)CC(C)(C)C1 (centres unmarked) [Homosalate, 3,3,5-trimethylcyclohexyl 2-hydrobenzoate]	significantly suppress EAE	without affecting body weight	1.3 ± 0.0	1 ± 0	22 ± 0	1500 mg/kg	8% (1/12) *	equally active; also recorded: completely blocked EAE	temporary mild skin irritation	Effectiveness when applied less frequently than each day (EAE mice; homosalate 1.5 g/kg topically (FIGS. 8C and 8D)): effectiveness diminished; Mean EAE score, applied every day and every 2-day (EAE mice; homosalate 30 μl or 1.5 g/kg topically (FIGS. 8C and 8D), p<0.05): significantly lower than control; Dose dependence of EAE suppression (EAE mice): dose-dependent suppression of EAE; also recorded: dose dependent suppression of EAE; Suppression of EAE (mean clinical score) by sunscreen ingredients (EAE mice; listed as homosalate): dramatically suppress EAE development; also recorded: provide the protection; also recorded: dramatically suppressed EAE severity; also recorded: complete suppression of EAE; also recorded: almost completely prevented EAE development; Body weight at three doses [1]: increased the body weight; also recorded: significantly different from control; Acute dermal toxicity LD50 (rabbits): > 5000 mg/kg; Anti-inflammatory effect (ear edema): demonstrated
CCCCC(CC)COC(=O)c1ccccc1O (centres unmarked) [octyl salicylate, 2-ethylhexyl salicylate]	dramatically suppress EAE development; also recorded: provide the protection; also recorded: almost completely prevented EAE development	without affecting body weight	2.0 ± 0.8	20 ± 1	18 ± 3	500 mg/kg	75% (9/12)	equally active	temporary mild skin irritation	Dose dependence of EAE suppression (EAE mice; listed as octisalate): dose-dependent suppression of EAE; also recorded: dose dependent suppression of EAE; Suppression of EAE (mean clinical score) by sunscreen ingredients (EAE mice; listed as Octisalate): moderate suppression but did not reach statistical significance; Suppression of EAE (mean clinical score) by sunscreen ingredients (EAE mice; listed as octisalate): complete suppression of EAE; also recorded: significantly suppress EAE; Body weight at three doses ([1]; listed as octisalate): increased the body weight; also recorded: significantly different from control
COc1ccc(C(=O)c2ccccc2)c(O)c1 [oxybenzone, reference compound]	partially suppress EAE severity; also recorded: little to no significant suppression of EAE; also recorded: fail to suppress EAE; also recorded: slightly suppressed disease progression	no significant change in body weight								

Source: US11266664B2, “Use of homosalate and octyl salicylate to treat multiple sclerosis” (Wisconsin Alumni Research Foundation, priority 2016, dated 2022)
